Results on nine compounds are retold here after PubChem BioAssay (NCI).

Structures are written as SMILES.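 Results reflect a 48-hour exposure of cells in 96-well plates to compound at five concentrations. GI50 = concentration required for 50% inhibition of growth. The concentration for full growth arrest is given as TGI.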

Common to all, as to assay: NCI anticancer screen, dose series, 48 h
In assay [1] the test system is BT-549 breast.
Assay [2] relates to SK-OV-3 ovarian.
Assay [3] concerns 786-0 renal.
For assay [4], the system named is SR leukemia.
Assay [5] concerns SNB-19 CNS.
Assay [6] deals with SF-295 CNS.
The test system of assay [7] is MCF7 breast.
Assay [8] concerns HOP-62 NSCLC.
Assay [9] deals with HCT-15 colon.
The subject of assay [10] is EKVX NSCLC.

Consider `CCC(C(=O)[C@@H](C)[C@@H](O)[C@H](C)[C@@H]1O[C@@H]([C@@H](CC)C(=O)ONC(=O)c2ccccc2)CC[C@@H]1C)[C@H]1O[C@]2(C=CC(=O)[C@]3(CC[C@@](C)([C@H]4CC[C@](O)(CC)[C@H](C)O4)O3)O2)[C@H](C)C[C@@H]1C` (stereo not given in full), for which the GI50 in assay [1] is 0.146 µM; in [2], 2.79 µM; in [3], 0.981 µM; in [4], 0.0674 µM; in assay [5], 0.588 µM; in assay [6], 0.384 µM. Also, the GI50 is 0.0869 µM in [7], 0.161 µM in [8], 0.349 µM in assay [9] and 0.548 µM in assay [10]. In addition, the TGI in assay [1] stood at 1.97 µM; in assay [2] it was 10.1 µM; in assay [3], 2.26 µM; in assay [4], 0.617 µM; in assay [5], 3.43 µM; in [6] it was 2.08 µM. In addition, the TGI amounted to 1.62 µM in [7], 1.95 µM in assay [8], 1.61 µM in [9] and 2.65 µM in assay [10].
Turning to `CC(C)(C)OC(=O)N1Cc2cc3ccccc3nc2C1CO` (stereo not given), the GI50 in assay [1], in assay [2], in [3], in [4], in assay [5] and in assay [6] was over 100 µM in each case. In addition, the GI50 in [7], in assay [8], in assay [9] and in [10] was over 100 µM each time. Also, the TGI in assay [1], in assay [2], in assay [3], in assay [4], in assay [5] and in [6] was over 100 µM throughout. The TGI in assay [7], in assay [8], in assay [9] and in [10] was over 100 µM throughout.
On to `Cc1cn(C2CC(O)C(COC(N)=O)O2)c(=O)[nH]c1=O` (stereo not given), for which the TGI in assay [1], in [2], in assay [3], in [4], in assay [5] and in assay [6] was over 100 µM in each case. For the same compound, the TGI in [7], in [8], in assay [9] and in [10] was over 100 µM throughout.
Take `CCN(CC)CCCC(C)Nc1ccnc(/C=C/c2ccc(Cl)cc2)c1` (stereo not given): the TGI in [1] was 8.39 µM; in assay [2], 10.7 µM; in [3] it was 3.45 µM; in assay [4], over 27.2 µM; in assay [5] it was 16.6 µM; in [6] it was 6.3 µM. Moreover, the TGI is 4.84 µM in [7], 4.11 µM in assay [8], 6.35 µM in assay [9] and 15.6 µM in [10].
Consider `CC(=N\O)/C(C)=N/O.CC(=N\O)/C(C)=N/O.[Fe].[NH2-].c1c[nH]cn1`, for which the GI50 in assay [1], in assay [2], in [3], in [4], in assay [5] and in assay [6] was over 100 µM each time. The GI50 in assay [7], in assay [8], in [9] and in assay [10] was over 100 µM each time. Further, the TGI in [1], in assay [2], in assay [3], in assay [4], in assay [5] and in assay [6] was over 100 µM in each case. In addition, the TGI in assay [7], in assay [8], in assay [9] and in [10] was over 100 µM in each case.
Take `Cc1ccc2c(c1)C(O)(c1ccccc1)CCS2` (stereo not given): the TGI is 93.6 µM in [1]; over 100 µM in assay [2]; over 100 µM in [3]; 40.3 µM in assay [4]; over 100 µM in [5]; 80.3 µM in assay [6]. The TGI in [7] was over 100 µM; in assay [8] it was over 100 µM; in [9] it was 42.4 µM; in [10], over 100 µM.
On to `NS(=O)(=O)c1cc(C(=O)O)c(Cl)c([N+](=O)[O-])c1Cl`, for which the TGI in assay [1], in assay [2], in assay [3], in assay [4], in [5] and in assay [6] was over 100 µM in each case. The TGI in assay [7], in [8], in assay [9] and in assay [10] was over 100 µM in each case.
In the case of `Cn1cc(-c2nc(-c3cn(C)c4ncccc34)cs2)c2ccccc21`, the GI50 in assay [1] was 2.32 µM; in [2], 1.98 µM; in assay [3], 2.68 µM; in assay [4], 0.703 µM; in assay [5], 3.68 µM; in [6], 1.22 µM. Moreover, the GI50 in [7] is 0.372 µM; in [8], 2.01 µM; in [9], 1.49 µM; in assay [10], 1.77 µM. The TGI in [1] is 31 µM; in assay [2], 5.31 µM; in assay [3] it was 13.7 µM; in assay [4], over 100 µM; in assay [5] it was 25.2 µM; in assay [6], 10.8 µM. The TGI is 17.5 µM in assay [7], 11.5 µM in assay [8], over 100 µM in assay [9] and over 100 µM in assay [10].
Regarding `CC(=O)/C=C/c1ccc(N(CCO)Cc2ccc(C(C)(C)C)cc2)cc1`, the GI50 in assay [1] was 47.8 µM; in assay [2] it was 121 µM; in assay [3] it was 51.3 µM; in assay [4] it was 39.1 µM; in [5] it was 116 µM; in [6], 40.3 µM. Also, the GI50 in assay [7] was 26.5 µM; in assay [8], 104 µM; in [9] it was 27.8 µM; in [10] it was 31 µM. Besides, the TGI stood at 178 µM in [1]; 248 µM in assay [2]; 184 µM in assay [3]; 169 µM in assay [4]; 241 µM in [5]; 176 µM in assay [6]. For the same compound, the TGI in [7] is 118 µM; in [8] it was 231 µM; in [9], 124 µM; in assay [10], 162 µM.
